{
  "source": "paper PMC11593560",
  "about": "(International Journal of Molecular Sciences, 2024)",
  "biological_target": "T1, CAIX (Homo sapiens, UniProt Q16790)",
  "T1 construct": "gene CA9; hCAIX expressed in Xenopus oocytes; with rMCT4 (coexpressed)",
  "experiment": "inhibition of CAIX-mediated increase in MCT4 transport (intracellular H+ microelectrodes, Xenopus oocytes)",
  "format": "cell-based",
  "data": [
    {"smiles": "O=C1NS(=O)(=O)c2cc(-n3cc(CCO[C@H]4O[C@@H](CO)[C@@H](O)[C@H](O)[C@@H]4O)nn3)ccc21", "note": "[BGal2C, Beta-Galactose-2C]", "values": [
      {"measurement": "IC50", "result": "89.9 ± 5.6", "unit": "nM"}
    ]}
  ]
}
